{"source": "patent US7893078B2", "about": "(priority 2001, dated 2011)", "key": {"melanocytic nevi": {"tested_on": "melanocytic nevi", "experiment": "Cyclopamine cream on mole / melanocytic nevi", "format": "in vivo, human", "text": "(§1) Trichoepithelioma is another tumor associated with genetic changes that cause increased hedgehog-smoothened signalling (Vorechovsky L. et al. (1997) Cancer Res. 57:4677-4681; Nilsson M. et al. (2000) Proc. Natl. Acad. Sci. USA 97:3438-3443)."}, "trichoepithelioma": {"tested_on": "trichoepithelioma", "conditions": "human, in vivo", "text": "as §1"}, "[1]": {"tested_on": "normal epidermis and hair follicles", "experiment": "Normal skin exposed to the same schedule and doses of cyclopamine cream; histology, immunohistochemistry and follow-up", "text": "(§2) The base cream used is made predominantly of heavy paraffin oil (10% w/w), vaseline (10% w/w), stearyl alcohol (8% w/w), polyoxysteareth-40 (3% w/w) and water (68% w/w), but another suitably formulated base cream is also possible. […] Night-time applications, avoided in this schedule because of possible loss of cream from the patient skin to linens during sleep, can be performed by suitable dermal patches."}, "[2]": {"tested_on": "basal cell carcinoma (BCC)", "conditions": "human, in vivo", "protocol": "as §2\nEvery third hour, about 20 μl cream was applied directly onto the lower half and the upper half was left untreated.\nThe tumor was then followed up without treatment for a study of the possible late effects. […] For example expression of the cell adhesion molecule CD44 is known to increase upon differentiation of the epidermal basal cells to the upper spinous layer cells (Kooy A J et al (1999) Human Pathology 30:1328-1335)."}}, "note": "Several values for one entry are separate records, joined by “and”; a condition that tells them apart may be missing. Equal entries are not always repeated. Entries after “also recorded” stand apart in the source; their conditions may differ.", "data": [{"smiles": "CC1=C2C[C@H]3[C@@H](CC=C4C[C@@H](O)CC[C@@]43C)[C@@H]2CC[C@]12O[C@@H]1C[C@H](C)CN[C@H]1[C@H]2C", "note": "[Cyclopamine]", "values": [{"measurement": "Effect on melanocytic nevi", "setting": "melanocytic nevi; 18 mM cyclopamine cream, another volunteer, data not shown", "result": "rapid depigmentation and disappearance"}, {"measurement": "Size and pigmentation of mole near treated tumor", "setting": "melanocytic nevi; cyclopamine by diffusion from adjacent application area, 24th hour", "result": "decreased size and pigmentation"}, {"measurement": "Clinical regression of trichoepithelioma", "setting": "trichoepithelioma", "result": "rapid regression"}, {"measurement": "Appearance of former skin sites of cyclopamine application at long-term follow-up", "setting": "[1]; followed up more than 31 months", "result": "healthy-looking normal skin and hair"}, {"measurement": "Adverse effect on tissues and putative stem cells (histology, cytokeratin 15 and 19, Ber-Ep4)", "setting": "[1]; normal skin exposed to same schedule and doses as the BCCs", "result": "no adverse effect"}, {"measurement": "% of Cells Labelled with Ber-Ep4", "setting": "[2]", "result": "0 ± 0", "unit": "%"}, {"measurement": "% of Cells showing ≦ 2 Morphological Signs of Apoptosis on H & E Stained Tissue Sections", "setting": "[2]", "result": "20 ± 8% and 18 ± 11%"}, {"measurement": "CD44 labelling of residual tumor cells (differentiation marker)", "setting": "[2]", "result": "markedly increased, strong labelling of essentially all residual tumor cells"}, {"measurement": "Clinical regression of BCC", "setting": "[2]", "result": "rapid clinical regressions; also recorded: rapid regression; also recorded: largely regressed"}, {"measurement": "Ki-67 antigen expression (proliferation marker)", "setting": "[2]", "result": "no longer expressed"}, {"measurement": "Labelling of residual BCC cells with Ulex Europaeus lectin type 1 (differentiation marker)", "setting": "[2]", "result": "heterogenous labelling"}]}]}
